Article PMC11459959, “Discovery of new acetamide derivatives of 5-indole-1,3,4-oxadiazol-2-thiol as inhibitors of HIV-1 Tat-mediated viral transcription” (Antimicrobial Agents and Chemotherapy, 2024)

How the values were obtained:
[1] = system: PI-resistant HIV-1 strain 11803; experiment: microbe, parasite or virus in culture; format: cell-based; details: Human immunodeficiency virus 1, PBMC
Excerpt: (§1) The Tzm-bl-derived dual Tat reporter; TZM-bl/Tat/Rluc (bl-DTR) cells were established from TZM-bl cells using two Dox-inducible lentiviral expression cassettes cloned with Flag-tagged Tat86 and the R-Luc gene, as described in our previous study ([11]). TZM-bl, A3.01, J1.1, and J-Lat 6.3 cells as well as the HIV-1 molecular clone pNL4-3, pNL(AD8), ARV-resistant HIV-1 strains, and HIV-1NL43-IRES-eGFP (pBR43IeG-nef^+, gifted by Dr. Frank Kirchhoff) ([52]) were provided by the National Institute of Health HIV Reagent Program (NIH, Bethesda, MD, USA). HeLa (CCL-2) and 293T (CRL-3216) cell lines were purchased from the American Type Culture Collection (ATCC, Manassas, VA, USA). The bl-DTR, TZM-bl, HeLa, and 293T cells were cultured in Dulbecco’s modified Eagle’s medium supplemented with 1% penicillin–streptomycin and 10% (vol/vol) heat-inactivated fetal bovine serum (all from Gibco-BRL, Gaithersburg, MD, USA), and 1 µg/mL of puromycin and 200 µg/mL of zeocin were additionally supplemented for the bl-DTR cells. PBMCs were purchased from AllCells (Alameda, CA, USA) and cultured as previously described ([12]). The information on ARV-resistant HIV-1 strains was described in previous reports as follows: NNRTI-resistant 12241 and 12243 ([53]); NRTI-resistant 7396, 7406, and 7407 ([54]); INSTI-resistant 11847 and 11849 ([55], [56]); and PI-resistant 11800 and 11803 ([57]). Each molecular HIV-1 clone was transfected to 293T cells, as previously described ([58]), to obtain infectious HIV-1 particles. Virus-containing cell culture supernatants were collected 3 days after transfection, and filtered through a 0.45-µm membrane filter (Millipore Sigma, Burlington, MA, USA) to remove cell debris. The viral titration was performed as described previously ([59]) with some minor modifications. In brief, 1 × 10^4 TZM-bl cells seeded in 96-well plates were infected with 200 µL of virus-containing medium diluted serially twofold. The incubation was for 2 days and the experiment was performed in triplicate; the infection time minimized the virus spread ([59]). The titration of the infectious viral particles was performed with a ß-Gal staining assay using the ßeta-Galactosidase Staining Kit (Mirus Bio, Madison, WI, USA) following the manufacturer’s protocols. In brief, the infected cells were washed with phosphate-buffered saline (PBS) and fixed using a Cell Fixative Working solution. The cells were washed with PBS and stained using the Cell Staining Working Solution containing X-gal. The infected blue-colored cells were counted under a microscope (100× magnification). The infectious virus titer was determined as a mean value of blue-colored cells count × dilution factor and used for determining the multiplicity of infection (MOI) in each infection experiment.
(§2) The inhibitory effects of the compounds on viral replication were determined with some minor modifications, as previously described ([12], [62]). […] PBMCs (4 × 10^5) pre-activated with PHA-M for 3 days were washed with fresh media to remove excess PHA-M and subsequently infected with HIV-1NL4-3 or HIV-1AD8 or PIs-resistant HIV-1 strains as A3.01 infection. After infection, the infectious media were replaced with fresh media supplemented with international 10 units (IU)/mL of IL-2 and the indicated compounds. At 72 h after infection, the inhibitory effect of the compounds on viral replication was determined by measuring the p24 amount, an HIV capsid protein, using an HIV-1 p24 […] kit (PerkinElmer, Waltham, MA, USA). Cell viability was determined as described above. The inhibitory effects on provirus reversing in J1.1 and J-Lat 6.3 cells were determined as previously described ([12], [41], [63]) with some minor modifications.

[2] = system: PI-resistant HIV-1 strain 11800; experiment: microbe, parasite or virus in culture; format: cell-based; details: Human immunodeficiency virus 1, PBMC
Excerpt: as §1, §2

[3] = target: T1, CDK9/Cyclin T (Homo sapiens, UniProt P50750); experiment: CDK9/Cyclin T kinase assay; format: biochemical; details: in vitro kinase kit, serial dilutions
T1 construct: purchased BPS Bioscience
T1 sequence (P50750 whole entry): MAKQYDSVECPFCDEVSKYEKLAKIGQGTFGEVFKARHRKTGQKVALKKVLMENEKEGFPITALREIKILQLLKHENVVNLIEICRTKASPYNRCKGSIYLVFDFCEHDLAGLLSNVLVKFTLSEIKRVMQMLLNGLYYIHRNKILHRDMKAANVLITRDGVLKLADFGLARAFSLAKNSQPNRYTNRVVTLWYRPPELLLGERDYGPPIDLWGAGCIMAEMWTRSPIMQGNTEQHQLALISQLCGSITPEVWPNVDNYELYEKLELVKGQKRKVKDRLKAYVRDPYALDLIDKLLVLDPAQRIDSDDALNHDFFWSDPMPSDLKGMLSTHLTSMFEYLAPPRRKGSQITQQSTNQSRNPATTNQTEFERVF
T1 sequence (O60563 whole entry partner): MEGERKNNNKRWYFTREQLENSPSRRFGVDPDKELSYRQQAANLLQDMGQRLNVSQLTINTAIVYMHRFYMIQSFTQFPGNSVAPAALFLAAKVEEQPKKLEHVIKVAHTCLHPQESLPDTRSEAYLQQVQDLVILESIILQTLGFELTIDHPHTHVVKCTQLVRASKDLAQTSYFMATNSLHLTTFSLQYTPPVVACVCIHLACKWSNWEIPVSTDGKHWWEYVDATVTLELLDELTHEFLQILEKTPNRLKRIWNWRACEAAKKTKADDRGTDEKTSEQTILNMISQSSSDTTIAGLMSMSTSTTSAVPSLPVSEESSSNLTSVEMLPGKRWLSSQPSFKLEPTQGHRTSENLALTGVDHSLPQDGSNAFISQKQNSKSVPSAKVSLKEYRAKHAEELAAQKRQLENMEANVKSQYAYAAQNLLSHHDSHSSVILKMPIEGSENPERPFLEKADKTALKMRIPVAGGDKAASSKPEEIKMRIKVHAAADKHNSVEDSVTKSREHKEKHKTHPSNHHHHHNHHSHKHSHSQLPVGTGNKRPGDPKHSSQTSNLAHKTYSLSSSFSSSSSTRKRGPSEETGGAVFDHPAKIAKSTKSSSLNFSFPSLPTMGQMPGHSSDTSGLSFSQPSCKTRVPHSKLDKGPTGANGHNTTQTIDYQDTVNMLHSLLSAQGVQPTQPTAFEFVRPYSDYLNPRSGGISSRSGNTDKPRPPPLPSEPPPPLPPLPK
Experimental: In brief, 12.5 µL of the Master Mix (Kinase Assay Buffer 1 supplemented with ATP and CDK Substrate Peptide 2) was mixed with 2.5 µL of each test compound diluted serially. The mixture was then mixed with CDK9/Cyclin T Kinase (50 ng/10 µL diluted in 1× Kinase Assay Buffer 1) and incubated for 45 min. The kinase activity was measured using Kinase-Glo Max (Promega). A decreased level of luminescence relative to ATP concentration indicated kinase activity, which was expressed as the percent of DMSO control.

Structure (SMILES) | EC50 [1] | EC50 [2] | inhibition of CDK9/Cyclin T kinase activity [3]
Cc1[nH]c2ccc(-c3nnc(SCC(=O)N4CCCC4)o3)cc2c1C [Compound 13, 2-((5-(2,3-Dimethyl-1H-indol-5-yl)-1,3,4-oxadiazol-2-yl)thio)-1-(pyrrolidin-1-yl)ethan-1-one] | 280 ± 40 nM | 810 ± 30 nM | did not exhibit
Cc1[nH]c2ccc(-c3nnc(SCC(=O)N4CCCCC4)o3)cc2c1C [Compound 9, 2-((5-(2,3-Dimethyl-1H-indol-5-yl)-1,3,4-oxadiazol-2-yl)thio)-1-(piperidin-1-yl)ethan-1-one] | 260 ± 80 nM | 540 ± 250 nM | did not exhibit
